Patent publication US10975123B2, “Mutant Akt-specific capture agents, compositions, and methods of using and making” (California Institute of Technology, priority 2014, dated 2021)
Where a SMILES comes first, the peptide text is derived from it. Bridges are numbered along the chain shown (N, C = ends). Roman numbers before positions name the chains, in order. Primed or numbered codes have the meaning given here. Triazole bridges read from a SMILES are 1,4-linked. Where no end group is shown, it is not given here. [ ]: non-standard residue; d: D form. The star is where a group is joined. Biotin = O=C1N[C@H]2[C@H](CS[C@H]2CCCCC(=O)*)N1; Lys(N3) = [N-]=[N+]=NCCCC[C@H](N)C(=O)O; PEG6 = NCCOCCOCCOCCOCCOCCOCCC(=O)O; dPra = C#CC[C@@H](N)C(=O)O; PEG5′ = PEG5 linker

Assays:
[1] = target: T1, E17K GST-PH Domain (E17K Akt1) (Homo sapiens, UniProt P31749, E17K); test: Full curve ELISA, immobilized ligand, E17K protein; assay type: binding
T1 construct: The first 124 N-terminal amino acids from full length Akt1 were used as the PH Domain DNA; GST (N); thrombin cleavage site (C); 6His (C); made in house; host or cells: E. coli BL21-DE3-pLys
Procedure: The full curve ELISAs were obtained using streptavidin coated ELISA plates (Pierce). The ligands—anchor, biligand, triligand and “eflya” scrambled anchor peptide blank—were laid down at a concentration of 1 μM for one hour. Two lanes of each ligand were used on the plate for both proteins—WT and E17K GST-PH Domain. The plates were blocked with 5% BSA for two hours. Dilutions of both WT and E17K GST-PH Domain proteins were made in 0.5% BSA in 1×TBS starting from 1 μM-0.5 nM by serially diluting 1:2 down a series of 8 samples. For each ligand, a no protein blank was also used. The proteins were incubated with the blocked plate for one hour, washed 3× with 1×TBST+0.5% BSA and tapped dry, then detected with a 1:10,000 dilution of an HRP conjugated anti-GST pAb. The plate was again washed 3× with 1×TBST and tapped dry. It was developed with a 1:1 solution of TMB substrate and development was stopped with 1M H2SO4 and read on a plate reader.

[2] = test system: E17K Akt1 relative to E17K Akt2; test: Point ELISA for triligand binding to Akt1 and Akt2 wildtype and E17K mutant; settings: protein 100 nM, immobilized triligand, in words
Procedure: These assays were conducted to test the binding of the triligand to the off-target Akt2 wildtype and mutant proteins. For this assay, all samples were taken in triplicate for statistical purposes. Triligand peptide was first immobilized onto neutravdin ELISA plates (Pierce) for one hour. A scrambled anchor peptide, eflya, was used as the no-ligand blank, as the GST proteins has significant background binding to a blank neutravidin plate. The plates were then blocked with 5% BSA overnight. Protein was laid down at a concentration of 100 nM for samples wells and the blank, scrambled peptide wells. GST protein alone (Abcam) was also incubated with the triligand and scrambled peptide as a control. The proteins were incubated for one hour, then washed three times with 1×TBST. The protein was then detected with 1:10,000 anti-GST mouse mAb (Fisher, #MA4-004) for one hour, washed three times with 1×TBST and developed with a 1:1 mixture of TMB substrate for ten minutes. The samples were plotted by subtracting the blanks and averaging the sample wells. The highest signal was considered 100% binding, and the other samples were normalized accordingly.

[3] = target: T2, E17K PH Domain binding to PIP3 (Homo sapiens, UniProt P31749, E17K); test: PIP3 agarose inhibition assay, E17K; assay type: biochemical; settings: in words; for inhibition of E17K PH Domain binding to PIP3-coated resin: ligand 2.38 μM (10x protein), protein 234 nM, western blot; for inhibition of E17K PH Domain binding to PIP3 resin, expanded assay: triligand 0.1-1000 eq relative to protein (234 nM)
T2 construct: 2 μg of either wildtype or mutant PH Domain-GFP protein (234 nM); made in house; host or cells: HEK-293-6E (used as cell lysate, not purified)
Description: (§1) The yleaf ligand, the biligand, and the triligand were all tested for their ability to block the E17K PHD binding with PIP3. For this test, PIP3-coated resin (Echelon Biosciences) was used to mimic the PHD interaction with the cell membrane, and could be used to bind the protein as in an immunoprecipitation assay^22. The presence of an effective blocking compound would reduce the ability of the resin to capture the protein, and would thus appear as a diminished signal in the corresponding western blot assay. A control lane containing no capture agent was used to show baseline binding of the protein to the PIP3 resin. […] In an expanded study, we compared the amount of E17K and WT PH domain binding relative to the amount of added triligand (FIG. 5e).
PIP3 Agarose beads (Echelon) were used to detect for the inhibition of PH Domain binding to its substrate, PIP3, upon incubation with the anchor candidate peptide ligands. To test the inhibition of each of the ligands, anchor biligand and triligand, 20 μL of resin slurry was added to each of four tubes and washed three times with 1×TBS. Protein, 2 μg (234 nM) of E17K mutant, was preincubated for one hour at room temperature with either DMSO (no protein blank), anchor, biligand or triligand at 2.38 μM (10× in relation to protein) in 200 μL of 1×TBS. For the control, mutant PH Domain was incubated with 1×TBS and 1 μL […] to mimic the ligand conditions. These protein samples were then added to PIP3 agarose in a Spin-X tube and incubated at room temperature for two hours. The resin was washed three times with 1×TBS with 0.25% IGEPAL CA-630, spun out to dry completely, then denatured with 50 μL 3×SDS gel loading buffer for 10 min at 95° C. The gel loading buffer was spun out of the resin and detected via western blot as per the Streptavidin-Agarose Pulldowns. Inhibition was indicated by a decrease in the amount of PH Domain that was pulled down by the resin.
(§2) Expanded inhibition blots with either WT of E17K mutant protein were performed in a similar fashion. Twelve tubes of 20 μL of PIP3 agarose were washed three times with 1×TBS. 2 μg of either wildtype or mutant PH Domain-GFP protein (234 nM) in 200 uL 1×TBS were preincubated for 30 minutes with differing concentrations of triligand: 0.1 eq (23.4 nM), 1 eq (234 nM), 10 eq (2.34 μM), 100 eq (23.4 μM), and 1000 eq (234 μM). The protein and triligand solutions were then incubated with the PIP3 resin for 2 hours at room temperature. The resins were washed, eluted, and blotted as per all PH Domain western blots.

[4] = target: T3, WT PH Domain binding to PIP3 (Homo sapiens, UniProt P31749); test: PIP3 agarose inhibition assay, WT; assay type: biochemical; settings: triligand 0.1-1000 eq relative to protein (234 nM), in words
T3 construct: 2 μg of either wildtype or mutant PH Domain-GFP protein (234 nM); made in house; host or cells: HEK-293-6E (used as cell lysate, not purified)
Description: as §1, §2

T2 sequence (P31749 5-108 E17K limits assumed): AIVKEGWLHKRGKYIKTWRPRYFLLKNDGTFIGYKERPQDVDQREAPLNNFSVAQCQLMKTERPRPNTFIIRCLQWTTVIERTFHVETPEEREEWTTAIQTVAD
T1 sequence (P31749 1-124 E17K): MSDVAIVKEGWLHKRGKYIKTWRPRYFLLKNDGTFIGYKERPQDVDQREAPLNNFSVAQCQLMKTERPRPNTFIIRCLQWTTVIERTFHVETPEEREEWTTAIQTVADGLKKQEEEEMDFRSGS
T3 sequence (P31749 5-108 limits assumed): as the sequence (P31749 5-108 E17K limits assumed) above, with K13E counted along it

selectivity for E17K Akt1 relative to WT Akt1 (ELISA) ([1]; in words) | EC50 ([1]; ligand immobilized at 1 μM on streptavidin plate, Hill fit with common saturation and slope, read-out: EC50 for the E17K Akt1 from ELISA binding curves) | inhibition of WT PH Domain binding to PIP3 resin, expanded assay [4] | Compound | change in binding affinity for the E17K protein versus the preceding ligand (ELISA) ([1]; in words) | selectivity for E17K Akt1 relative to WT Akt1 (ELISA) ([1]; in words, listed as ivdae) | preference for E17K Akt1 relative to E17K Akt2 [2] | inhibition of E17K PH Domain binding to PIP3-coated resin [3] | inhibition of E17K PH Domain binding to PIP3 resin, expanded assay [3]
largely recovered | 0.045 µM |  | CC[C@@H](C)[C@@H](NC(=O)CCOCCOCCOCCOCCOCCOCCNC(=O)CCCC[C@@H]1SC[C@@H]2NC(=O)N[C@@H]21)C(=O)N[C@@H](C(=O)N[C@H](CC(=O)O)C(=O)N[C@H](C)C(=O)N[C@H](CCC(=O)O)C(=O)N[C@H](Cc1cn(CCCC[C@H](NC(C)=O)C(=O)N[C@H](Cc2ccc(O)cc2)C(=O)N[C@H](CC(C)C)C(=O)N[C@H](CCC(=O)O)C(=O)N[C@H](C)C(=O)N[C@H](Cc2ccccc2)C(=O)N[C@H](Cc2cn(CCCC[C@H](NC(C)=O)C(=O)N[C@H](Cc3ccc(O)cc3)C(=O)N[C@H](CCCCN)C(=O)N[C@H](CO)C(=O)N[C@H](Cc3ccc(O)cc3)C(N)=O)nn2)C(=O)O)nn1)C(=O)O)C(C)C [triligand] (I: Ac-[Lys(N3)][dY][dL][dE][dA][dF][dPra]-OH / II: {Biotin-PEG6}-[dI][dV][dD][dA][dE][dPra]-OH / III: Ac-[Lys(N3)][dY][dK][dS][dY]-NH2; triazole I:1-II:6, I:7-III:1; N-terminus assumed) | does not show an affinity increase for the E17K protein | maintains the selectivity over the WT protein | slight preference for E17K Akt1 relative to E17K Akt2 | exhibited the ability to block the PHD-PIP3 interaction, with the triligand being the most effective | significant selective inhibition of the E17K mutant relative to the WT
 |  | little inhibition of this protein | triligand 8: form of the ivdae-yleaf-yksy triligand used in PIP3 inhibition assays (peptide 1 {Biotin-PEG5′}-[dI][dV][dD][dA][dE]; peptide 2 [dY][dL][dE][dA][dF]; peptide 3 [dY][dK][dS][dY]; not fully specified (N-terminus, C-terminus); also: triazole to a chain's N/C-terminus via Pra/Lys(N3), triazole to a chain's N/C-terminus via Pra/Lys(N3)) |  |  |  | decreased binding of the protein | significant inhibition
